This assay has as its target T1, GPR40 (Homo sapiens, UniProt O14842).
T1 construct: expressed in transfected cells
Nature of the assay: IP1 accumulation assay in HEK293 cells stably expressing GPR40. Type of assay: cell-based. The conditions noted are these: HEK293 cells stably expressing GPR40, 2 hours at 37° C. As for the experimental part: IP1 accumulation assay was used to evaluate the potency of compounds. HEK293 cells stably expressing GPR40 were cultured in 5% CO2 incubator (ThermoFisher) in maintenance media (Dulbecco's modified Eagle's medium with 4.5 g/L of glucose, 10% fetal bovine serum, 100 μg/mL Hygromycin, and Penicillin (100 U/mL)/Streptomycin (100 μg/mL)) till 100% confluency. Cells were harvested freshly, spun down at 300× g for 5 min, and resuspended in pre-warmed 1× stimulant buffer from Cisbio IP-One HTRF Detection kit (Cisbio). Cell density was adjusted to 2.0×10^6 cells/mL. DMSO was used as blank control and AMG-1638 (CAS #: 1142214-62-7) as positive control. Compounds were prepared at 10 mM in DMSO and 5 nL of 3× serially diluted compounds (10 concentrations) were added to each well of the 384-LDV assay plate (Corning) by using ECHO 550 (Labcyte). Five μL of cells in suspension were transferred into each well by using Multidrop Combi Reagent Dispenser (ThermoFisher). Assay plate was then sealed and incubated at 37° C. for 2 hours. IP-d2 reagent and anti-IP1 reagent were prepared following the manual (Cisbio). Five μL of IP1-d2 and then 5 μL of anti-IP1 antibody was added to each well sequentially. Assay plate was incubated at room temperature for 60 min and then read at 665 nm/615 nm on an Envision plate reader (PerkinElmer). The ratio of values obtained at 665 nm and 615 nm was used for calculation of IP1 accumulation: % Effect=(Ratiosample−Ratioblank)/(RatioAMG-1638−Ratioblank)×100. Dose curve was fitted and EC50 of each compound was calculated by using XLFit.

Data on 27 compounds can be found in patent publication US20250073338A1, “CONJUGATE COMPOUNDS AND COMPOSITIONS” (REZUBIO PHARMACEUTICALS CO., LTD, priority 2023, published 2025).

SMILES strings stand for the structures. Where a name gives a salt, the structure may show the parent alone. Bounds are passed on as bounds.

T1 sequence (O14842 whole entry): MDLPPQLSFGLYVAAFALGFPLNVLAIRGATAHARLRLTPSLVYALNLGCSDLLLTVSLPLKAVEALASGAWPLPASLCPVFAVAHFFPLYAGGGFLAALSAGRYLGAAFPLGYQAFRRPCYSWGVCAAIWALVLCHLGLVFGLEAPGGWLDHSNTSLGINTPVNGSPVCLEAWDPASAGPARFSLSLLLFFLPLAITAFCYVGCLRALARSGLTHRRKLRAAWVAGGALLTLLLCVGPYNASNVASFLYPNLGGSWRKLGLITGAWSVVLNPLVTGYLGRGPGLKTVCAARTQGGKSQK

The term EC50 denotes the concentration needed to bring the measured effect to its halfway point. Read a low EC50 as a more potent agent. In the case of `COc1ccc(C(=O)N(CC(C)(C)CCCCCCCCCCCCCCCCCC[N+]2(C)CCN(C)CC2)c2cccc(C)n2)c(N2CCC(COc3cc([C@@H](CC(=O)O)C4CC4)ccn3)CC2)c1` [Example 24], the response was half-maximal at 1150 pM (EC50).
Turning to `COc1ccc(C(=O)N(CC(C)(C)CCCCCCCCCCCCCCCCCC(=O)NCc2ccccc2)c2cccc(C)n2)c(N2CCC(COc3cc([C@@H](CC(=O)O)C4CC4)ccn3)CC2)c1` [Example 31], a half-maximal effect (EC50) was put at 163000 pM.
The compound `COc1ccc(C(=O)N(CC(C)(C)CCCCCCCCCCCCCCCCCC(=O)NCCC[N+](C)(CC(=O)[O-])CC(=O)O)c2cccc(C)n2)c(N2CCC(COc3cc([C@@H](CC(=O)O)C4CC4)ccn3)CC2)c1` (stereo partly drawn) [Example 35] displayed an EC50 of 630 pM.
`CCCCNC(=O)CCCCCCCCCCCCCCCCCC(C)(C)CN(C(=O)c1ccc(OC)cc1N1CCC(COc2cc([C@@H](CC(=O)O)C3CC3)ccn2)CC1)c1cccc(C)n1` [Example 32] showed an EC50 of 385000 pM.
Compound `COc1ccc(C(=O)N(CC(C)(C)CCCCCCCCCCCCCCCCCCCC(=O)NCCC[N+](C)(C)CC(=O)NCCN)c2cccc(C)n2)c(N2CCC(COc3cc([C@@H](CC(=O)O)C4CC4)ccn3)CC2)c1` [Example 16] showed an EC50 of 480 pM.
On to `COc1ccc(C(=O)N(CC(C)(C)CCCCCCCCCCCCCCCCCCCC(=O)NCCN(CC(=O)NCCN)CC(=O)NCCN)c2cccc(C)n2)c(N2CCC(COc3cc([C@@H](CC(=O)O)C4CC4)ccn3)CC2)c1` [Example 2], for which the EC50 was found to be 2000 pM.
In the case of `COc1ccc(C(=O)N(CC(C)(C)CCCCCCCCCCCCCCCCCC(=O)NCCCC[N+]23CCN(CC2)CC3)c2cccc(C)n2)c(N2CCC(COc3cc([C@@H](CC(=O)O)C4CC4)ccn3)CC2)c1` [Example 28] it was 490 pM; in that of `COc1ccc(C(=O)N(CC(C)(C)CCCCCCCCCCCCCCCCCCNC(=O)C[N+]23CCN(CC2)CC3)c2cccc(C)n2)c(N2CCC(COc3cc([C@@H](CC(=O)O)C4CC4)ccn3)CC2)c1` [Example 23, (S)-1-(2-((20-(2-(4-(((4-(2-carboxy-1-cyclopropylethyl)pyridin-2-yl)oxy)methyl)piperidin-1-yl)-4-methoxy-N-(6-methylpyridin-2-yl)benzamido)-19,19-dimethylicosyl)amino)-2-oxoethyl)-1,4-diazabicyclo[2.2.2]octan-1-ium trifluoroacetate], 2800 pM; in that of `COc1ccc(C(=O)N(CC(C)(C)CCCCCCCCCCCCCCCCCCCC(=O)NCCCN(C)CC(=O)NCCN)c2cccc(C)n2)c(N2CCC(COc3cc([C@@H](CC(=O)O)C4CC4)ccn3)CC2)c1` [Example 15], 670 pM.
For the compound `COc1ccc(C(=O)N(CC(C)(C)CCCCCCCCCCCCCCCCCC(=O)NCC[N+](C)(CC(=O)NCCN)CC(=O)NCCN)c2cccc(C)n2)c(N2CCC(COc3cc([C@@H](CC(=O)O)C4CC4)ccn3)CC2)c1` [Example 7], the EC50 came out at 530 pM.
On to `COc1ccc(C(=O)N(CC(C)(C)CCCCCCCCCCCCCCCCCCCCCC(=O)NCC[N+](C)(CC(=O)NCCN)CC(=O)NCCN)c2cccc(C)n2)c(N2CCC(COc3cc([C@@H](CC(=O)O)C4CC4)ccn3)CC2)c1` [Example 11, (S)-2-((2-aminoethyl)amino)-N-(2-((2-aminoethyl)amino)-2-oxoethyl)-N-(2-(24-(2-(4-(((4-(2-carboxy-1-cyclopropylethyl)pyridin-2-yl)oxy)methyl)piperidin-1-yl)-4-methoxy-N-(6-methylpyridin-2-yl)benzamido)-23,23-dimethyltetracosanamido)ethyl)-N-methyl-2-oxoethanaminium trifluoroacetate], for which the midpoint of the response, the EC50, lay at 1340 pM.
`COc1ccc(C(=O)N(CC(C)(C)CCn2cc(CCCCCCCCCCCCCCCCCC(=O)O)nn2)c2cccc(C)n2)c(N2CCC(COc3cc([C@@H](CC(=O)O)C4CC4)ccn3)CC2)c1` [Example 33] gave an EC50 of over 152000 pM.
In the case of `COc1ccc(C(=O)N(CC(C)(C)CCCCCCCCCCCCCCCCCC[N+](C)(C)C)c2cccc(C)n2)c(N2CCC(COc3cc([C@@H](CC(=O)O)C4CC4)ccn3)CC2)c1` [Example 25] it was 450 pM; in that of `COc1ccc(C(=O)N(CC(C)(C)CCCCCCCCCCCCCCCCCCCC(=O)NCCN(CCC(=O)NCCN)CCC(=O)NCCN)c2cccc(C)n2)c(N2CCC(COc3cc([C@@H](CC(=O)O)C4CC4)ccn3)CC2)c1` [Example 1], 1230 pM.
With `COc1ccc(C(=O)N(CC(C)(C)CCn2cc(CCCCCCCCCCCCCCCCCC(=O)NCCNC(=O)C(CCCCN(CCCN)CCCN)NCCCN)nn2)c2cccc(C)n2)c(N2CCC(COc3cc([C@@H](CC(=O)O)C4CC4)ccn3)CC2)c1` (stereo partly drawn) [Example 27], the midpoint of the response, the EC50, lay at 710 pM.
Compound `COc1ccc(C(=O)N(CC(C)(C)CCCCCCCCCCCCCCCCCCCCC(=O)NCC[N+](C)(CC(=O)NCCN)CC(=O)NCCN)c2cccc(C)n2)c(N2CCC(COc3cc([C@@H](CC(=O)O)C4CC4)ccn3)CC2)c1` [Example 10] had an EC50 of 3650 pM.
`COc1ccc(C(=O)N(CC(C)(C)CCCCCCCCCCCCCCCCCC[N+]23CCN(CC2)CC3)c2cccc(C)n2)c(N2CCC(COc3cc([C@@H](CC(=O)O)C4CC4)ccn3)CC2)c1` [Example 22]: the EC50 came out at 360 pM.
Consider `CC[N+](CC)(CC)CCCCCCCCCCCCCCCCCCC(C)(C)CN(C(=O)c1ccc(OC)cc1N1CCC(COc2cc([C@@H](CC(=O)O)C3CC3)ccn2)CC1)c1cccc(C)n1` [Example 26], for which the EC50 was 360 pM.
`CC[N+](CC)(CC)CCCCNC(=O)CCCCCCCCCCCCCCCCCC(C)(C)CN(C(=O)c1ccc(OC)cc1N1CCC(COc2cc([C@@H](CC(=O)O)C3CC3)ccn2)CC1)c1cccc(C)n1` [Example 30]: the EC50 was found to be 430 pM.
`COc1ccc(C(=O)N(CC(C)(C)CCCCCCCCCCCCCCCCCCCC(=O)NCC[N+](C)(CCCC(=O)NCCN)CCCC(=O)NCCN)c2cccc(C)n2)c(N2CCC(COc3cc([C@@H](CC(=O)O)C4CC4)ccn3)CC2)c1` [Example 9]: the EC50 worked out at 350 pM.
In the case of `COc1ccc(C(=O)N(CC(C)(C)CCCCCCCCCCCCCCCCCC(=O)NCCCC[N+](C)(C)C)c2cccc(C)n2)c(N2CCC(COc3cc([C@@H](CC(=O)O)C4CC4)ccn3)CC2)c1` [Example 29] it was 320 pM; in that of `COc1ccc(C(=O)N(CC(C)(C)CCCCCCCCCCCCCCCCCCCC(=O)NCCN(CCCC(=O)NCCN)CCCC(=O)NCCN)c2cccc(C)n2)c(N2CCC(COc3cc([C@@H](CC(=O)O)C4CC4)ccn3)CC2)c1` [Example 8], 280 pM.
In the case of `COc1ccc(C(=O)N(CC(C)(C)CCCCCCCCCCCCCCCCCCCC(=O)NCC[N+](C)(CCC(=O)NCCN)CCC(=O)NCCN)c2cccc(C)n2)c(N2CCC(COc3cc([C@@H](CC(=O)O)C4CC4)ccn3)CC2)c1` [Example 3], a half-maximal response (EC50) required 1790 pM.
Compound `COc1ccc(C(=O)N(CC(C)(C)CCCCCCCCCCCCCCCCCC(=O)NCCC[N+](C)(C)CCCS(=O)(=O)[O-])c2cccc(C)n2)c(N2CCC(COc3cc([C@@H](CC(=O)O)C4CC4)ccn3)CC2)c1` [Example 36] gave an EC50 of 780 pM.
On to `COc1ccc(C(=O)N(CC(C)(C)CCCCCCCCCCCCCCCCCCCC(=O)NCCCN(CC(=O)NCCN)CC(=O)NCCN)c2cccc(C)n2)c(N2CCC(COc3cc([C@@H](CC(=O)O)C4CC4)ccn3)CC2)c1` [Example 5], for which the midpoint of the response, the EC50, lay at 1730 pM.
`C[C@H](C(=O)O)[C@H](c1ccc2c(c1)O[C@@H](C1CCN(Cc3cc(CCCCCCCCCCCCCCCCCCCC(=O)NCCC[N+](C)(CC(=O)NCCN)CC(=O)NCCN)ccc3OC(F)(F)F)CC1)CC2)C1CC1` [Example 20] gave an EC50 of 3570 pM.
`COc1ccc(C(=O)N(CC(C)(C)CCCCCCCCCCCCCCCCCCCC(=O)NCCC[N+](C)(CC(=O)NCCN)CC(=O)NCCN)c2cccc(C)n2)c(N2CCC(COc3cc([C@@H](CC(=O)O)C4CC4)ccn3)CC2)c1` [Example 6] showed an EC50 of 840 pM.
